# Source: patent publication EP0525686A1, “Dimethylacetylacetic acid amides, process for their preparation and pharmaceutical compositions” (LUITPOLD PHARMA GmbH, priority 1991, dated 1993)
# Assays:
# [1] = test system: Carrageenin-Lösung erzeugte Ödeme der rechten Hinterpfote; experiment: Carrageenan-induced paw oedema test for anti-inflammatory activity; format: in vivo, Wistar-Ratten; conditions: 200 mg/kg p.o., 30 min before carrageenan; paw volume 3 h after injection; female Wistar rats, n=10
# Source text: Die Prüfung auf antientzündliche Wirkung (C. A. Winter, E. A. Risley, G. W. Nuss; Proc. Soc. Exp. Biol. Med. 111, 544 (1962)) erfolgte durch mit 0.5 %iger wäßriger Carrageenin-Lösung erzeugte Ödeme der rechten Hinterpfote an Gruppen mit je zehn nüchternen, ca. 150 g schweren weiblichen Wistar-Ratten. Dazu wurden mit einem Plethysmometer die Volumina der markierten rechten Hinterpfote unmittelbar vor und drei Stunden nach der Injektion der Carrageenin-Lösung gemessen. Die zu prüfenden Substanzen wurden 30 Minuten vor Erzeugung des Ödems als Gummi arabicum Suspension mittels einer Schlundsonde p.o. verabreicht. Die Kontrollgruppe erhielt reines Leitungswasser. Die Einzeldosis pro Tier lag bei 200 mg/kg Körpergewicht.
# Zur Auswertung wurde die prozentuale Zunahme des Pfotenvolumens für jedes Tier nach folgender Formel berechnet: [formula] dann wurden Mittelwerte und Streuung für alle so berechneten Werte einer Gruppe bestimmt. Der Unterschied zwischen der mit Prüfsubstanz behandelten Versuchs- und der zugehörigen unbehandelten Gruppe wurde nach der Formel [formula] ermittelt. Die statistische Auswertung erfolgte nach den üblichen Verfahren.
# [2] = Acute toxicity (LD50), tolerability; conditions: in vivo; species and route not given
# Protocol: Im Zusammenhang mit der vorliegenden Erfindung wurde überraschend gefunden, daß Substanzen der allgemeinen Formel I wertvolle pharmakologische Eigenschaften aufweisen und insbesondere als antientzündliche Wirkstoffe eingesetzt werden können. Neben der guten Verträglichkeit - die LD50 der Verbindung aus Beispiel 1 liegt beispielsweise bei über 1000 mg/kg - zeichnen sich Verbindungen der allgemeinen Formel I durch nützliche analgetische und antipyretische Eigenschaften aus. Insbesondere eignen sich die erfindungsgemäßen Verbindungen zur Behandlung entzündlicher Erkrankungen bei Mensch und Tier. Die Krankheitsbilder, die mit den erfindungsgemäßen Verbindungen behandelt werden können, umfassen alle entzündlichen Zustände, wie zum Beispiel Entzündungen der Haut wie Radiodermatitis, Psoriasis, Akne, Ekzeme, Entzündungen am Auge wie zum Beispiel Conjunktivitis, Entzündungen im Hals-Nasen-Ohren-Bereichwie zum Beispiel katarralische Infektionen der oberen Luftwege und Sinusitis, entzündliche Erkrankungen des Gefäßsystems wie Thrombophlebitis oder Vaskulitis und Entzündungen des Nervensystems wie zum Beispiel Neuralgien oder Neuritiden. Bevorzugt zu behandelnde entzündliche Erkrankungen sind Entzündungen im Bereich des Bewegungsapparates wie Arthritiden, Arthrose, Tendinitis, Tendopathien, Kontusionen und Distorsionen, Weichteilrheumatismus, Gicht und Lumbalgien. […]
Compound,% Hemmung [1],LD50 [2]
"COc1ccccc1NC(=O)CC(=O)C(C)C [Beispiel 1, N-(2-Methoxyphenyl) 4-methylpentan-3-on-säureamid]",52%,> 1000 mg/kg
"CC(C)C(=O)CC(=O)Nc1nccs1 [Beispiel 2, N-(2-Thiazolyl)-4-methylpentan-3-on-säureamid]",32%,–
"COc1ccc(NC(=O)CC(=O)C(C)C)cc1 [Beispiel 3, N-(4-Methoxyphenyl)-4-methylpentan-3-on-säureamid]",27%,–
"COc1ccc(C)cc1NC(=O)CC(=O)C(C)C [Beispiel 4, N-(2-Methoxy-5-methylphenyl)-4-methylpentan-3-on-säureamid]",26%,–
